“And” between values parts separate entries of the source, which are not always exact repeats. Identical values can stand only once. Counter-ions that a name gives are not always drawn. Like-named read-outs stand apart in the source and are kept apart here.
Legend:
[1] = tested on: rat paw injected with Zymosan; assay: Zymosan-induced mechanical hyperalgesia in rats (Randall-Selitto); assay type: in vivo; conditions: os, 0-6 hours, dose increasing pain threshold by 30%
Description: (§1) This is a phlogogenic agent, consisting of a protein-glycoside complex, extracted from the cell walls of raw yeast, which is capable of inducing rapid degranulation of neutrophils, an increase in the production of TNF-α, interleukin-1 (IL-1), IL-6 and stimulation of NO generation by monocytes and macrophages (ZymosaN:Merck Index XIII ed. No. 10250, p. 1818).
(§2) The experiments consisted of sub-plantar intradermal injection into the animal of 4 mg of Zymosan suspended in 100 μl of sterile physiological solution, while the test compounds were administered orally 30 minutes before injection of the phlogogenic agent.
(§3) Measurement of the inflammation of the injected paw and of the consequent hyperalgesic effects was performed 2, 4 and 6 hours after the administration of Zymosan. The oedema was evaluated as the increase in volume of the injected paw within the period 0-6 hours, relative to the initial value of the volume of the paw, i.e. before the injection of Zymosan (basal value).
The hyperalgesia induced by the intradermal administration of Zymosan was evaluated on these animals and at the same times described previously for the evaluation of the oedema, using the Randall-Selitto method [Arch. Int. Pharmacodyn. 111, 409 (1957)].
When the animal makes a noise following the pain stimulus, the operator blocks the punch and records the force, expressed in grams, which was applied to the paw (the cut-off value is 500 grams). The difference in the meal chanical pain threshold between the basal value (generally about 230-250 grams) and that recorded at the indicated times after injection of the phlogogenic agent, generally 130-140 g for the control animals 6 hours after injection of the phlogogenic agent, is defined as mechanical hyperalgesia. In this case also, an ED30 was calculated, i.e. the dose in mg/kg capable of increasing the pain threshold by 30% (meal chanical hyperalgesia) in the animals treated with the test compounds relative to the group of control animals.

[2] = tested on: rat paw injected with Zymosan; assay: Zymosan-induced paw oedema in rats; assay type: in vivo; conditions: for anti-inflammatory and anti-hyperalgesic action (in words): Zymosan, administered orally, L-NAME up to maximum dose 50 mg/kg; for Anti-inflammatory activity (oedema) ED30 / Mean (Oedema + Analgesia) ED30: os, 0-6 hours; for Anti-inflammatory activity (oedema) ED30: dose reducing volume increase by 30%; for Mean (Oedema + Analgesia) ED30: mean of oedema and analgesia ED30
Description: as §1, §2, §3
The measurements of the variation of the volume of the paw were recorded using a hydroplethysmometer (Mod. 7150, Basile, Italy), which consists of two plastic cuvettes containing a surfactant liquid, the larger one being used for immersion of the paw, connected to the smaller one which contains a transducer capable of recording small displacements of volume of the liquid used for the measurement. The paw is immersed in the cuvettes up to the tibiotarsal joint. The volume of liquid displaced by the paw indicates the magnitude of the inflammation.
For each test compound, at least three doses were used (generally 10, 20 and 40 mg/kg) with at least five animals per group×dose, so as to be able to calculate an ED30, i.e. the dose in mg/kg capable of reducing by 30% the Zymosan-induced volume increase, relative to the group of control animals, i.e. animals injected only with the phlogogenic agent and treated orally with distilled water.

[3] = tested on: formation of NO measured as NO2^− (nitrite); assay: Inhibition of NO (nitrite) formation in rabbit articular chondrocytes stimulated with IL-1β; assay type: cell-based; conditions: Oryctolagus cuniculus, Chondrocyte
Description: (§4) a) The inhibitory activity on the formation of NO measured as NO2^− (nitrite) and PGE2 was studied in vitro on culture media of rabbit articular chondrocytes stimulated with the cytokine IL-1β (1 ng/ml) for 48 hours. For the preparation of the chondrocytes, the method described by Berenbaum et al. [FEBS Letters 340, 51-55 (1994)] was followed. Briefly, fragments of cartilage removed aseptically from the articular heads of rabbit shoulder, hip and knee were finely ground and digested at 37° C. in hyaluronidase, trypsin and collagenase solutions, giving, after filtration through sterile gauze and centrifugation at 600×g and suitable dilution with 10% DMEM-FCS 10%, a concentration per well of about 1×10^5 cells. The cells were maintained under these conditions until confluent (about 15 days), the medium being replaced every 3 days. At this point, the test products dissolved in the medium were added to each sample and, after 20 minutes, 350 μl of IL-1β were added, to give a final concentration of 1 ng/ml. The stimulation lasted 48 hours at 37° C. (incubation in air/7% CO2). A nitrite assay was subsequently performed on the cell supernatant, as described by Green et al. [Anal. Biochem. 126, 131-138 (1982)], and of PGE2 by RIA assay. The results obtained are shown in Table 3, in which is given, for a number of the compounds that are the subject of the invention and that are already illustrated in Table 1, the IC50, i.e. the concentration (micromolar) of antagonist capable of inhibiting the formation of nitrites and PGE2 by 50% relative to the control group, i.e. relative to the cells stimulated with IL-1β but without addition of antagonists.

PGE2 = assay: Inhibition of PGE2 formation in rabbit articular chondrocytes stimulated with IL-1β (RIA); assay type: cell-based; conditions: for IC50: Oryctolagus cuniculus, Chondrocyte
Description: as §4

[4] = tested on: rabbit articular chondrocytes; assay: Cellular toxicity on rabbit articular chondrocytes; assay type: cell-based; conditions: noted beside IN in Table 3
Description: as §4

IL-6 = assay: Inhibition of IL-6 expression (mRNA) in SW 1353 cells stimulated with IL-1β, Real Time PCR; assay type: cell-based; conditions: Homo sapiens, SW1353; SW 1353 cells stimulated for 6 hours with IL-1β
From the text: In practice, the RNA extracted from the cells was back-transcribed to c-DNA by means of a thermocycler (BioRad—“iCycler”) and subsequently amplified via the Real Time PCR technique using a probe and a primer specific for IL-6, from the company Applied Biosystem, and the thermocycler 7000 Sequence Detection System (Applied Biosystem).
The capacity […] may be considered as large, since the increase in the expression of this cytokine is associated with the physiopathology of various human diseases, for instance Crohn's disease, as described previously.

[5] = rabbit articular chondrocytes stimulated with IL-1β, read-out: IC50, production of NO
[6] = rabbit articular chondrocytes, IL-1β 1 ng/ml, 48 hours, nitrite in supernatant, read-out: Inhibition % IC50 NO
[7] = rabbit articular chondrocytes, IL-1β 1 ng/ml, 48 hours, RIA, read-out: Inhibition % IC50 PGE2
[8] = rabbit articular chondrocytes, IL-1β 1 ng/ml, 48 hours, RIA
[9] = rabbit articular chondrocytes stimulated with IL-1β, read-out: IC50, formation of PGE2

Row | Structure (SMILES) | Analgesic activity (mechanical anti-hyperalgesia) ED30 [1] [mg/kg] | anti-inflammatory and anti-hyperalgesic action (in words) [2] | Anti-inflammatory activity (oedema) ED30 [2] [mg/kg] | Mean (Oedema + Analgesia) ED30 [2] [mg/kg] | IC50 [3, 5] [µM] | IC50 [3, 6] [µM] | melting point | IC50 (PGE2; [7]) [µM] | Tox = cellular toxicity (concentration) [4] [µM] | IC50 (IL-6) [µM] | Inhibition % IC50 PGE2 (PGE2; [8]) | IC50 (PGE2; [9]) [µM]
1 | CC(=N)Nc1ccc2nc(-c3ccccc3)sc2c1 [Compound 1, N-(2-phenylbenzothiazol-6-yl)acetamidine] | 6.7 | powerful anti-inflammatory and anti-hyperalgesic action | 12.6 | 9.7 | 3 to 8 | 6.5 | 161 to 162.1 °C | 2.4 | – | – | – | –
2 | CC(=N)Nc1ccc2nc(-c3ccc(Cl)cc3)sc2c1 [Compound 3, N-[2-(4-chlorophenyl)benzothiazol-6-yl]acetamidine] | – | – | – | – | – | – | 212.2 to 213.5 °C | 1.9 | 30 | – | – | –
3 | CC(=N)Nc1ccc2[nH]c(-c3ccccc3)cc2c1 [Compound 5, N-(2-phenyl-1H-indol-5-yl)acetamidine] | 19.3 | powerful anti-inflammatory and anti-hyperalgesic action | 39.4 | 29.4 | 3 to 8 | 3.4 | 217.7 to 220 °C and 218 to 220 °C | 1.2 | – | 1.5 to 6 | – | –
4 | CC(=N)Nc1ccc2c(c1)cc(-c1ccccc1)n2C [Compound 6, N-(1-methyl-2-phenyl-1H-indol-5-yl)acetamidine] | – | – | – | – | – | – | 184.6 to 185.8 °C | – | 30 | – | IN (IN = <25% inhibitory activity at 30 × 10^−6M) | –
5 | CC(=N)Nc1ccc2nc(-c3ccccc3)ccc2c1 [Compound 8, N-(2-phenylquinol-6-yl)acetamidine] | 11.8 | powerful anti-inflammatory and anti-hyperalgesic action | 19.8 | 15.8 | – | 47.9 | 143 to 144.4 °C | 2.3 | – | 1.5 to 6 | – | –
6 | CC(=N)Nc1ccc2sc(-c3ccccc3)nc2c1 [Compound 9, N-(2-phenylbenzothiazol-5-yl)acetamidine] | 31.3 | powerful anti-inflammatory and anti-hyperalgesic action | 33.9 | 32.6 | – | 18 | 177 to 178 °C | 4.2 | – | 1.5 to 6 | – | –
7 | COc1ccccc1-c1nc2cc(NC(C)=N)ccc2s1 [Compound 10, N-[2-(2-methoxyphenyl)benzothiazol-5-yl]acetamidine] | – | – | – | – | – | – | 163 to 165 °C | 5.9 | 100 | – | – | –
8 | COc1ccc(-c2nc3cc(NC(C)=N)ccc3s2)cc1 [Compound 15, N-[2-(4-methoxyphenyl)benzothiazol-5-yl]acetamidine] | – | – | – | – | – | – | 203 to 204.7 °C | 7.4 | 30 | – | – | –
9 | COc1ccc(-c2nc3cc(NC(C)=N)ccc3s2)c(OC)c1 [Compound 16, N-[2-(2,4-dimethoxyphenyl)benzothiazol-5-yl]acetamidine] | – | – | – | – | – | – | 156.4 to 158.3 °C | – | 30 | – | IN (IN = <25% inhibitory activity at 30 × 10^−6M) | –
10 | COc1cccc(-c2nc3cc(NC(C)=N)ccc3s2)c1 [Compound 17, N-[2-(3-methoxyphenyl)benzothiazol-5-yl]acetamidine] | – | – | – | – | – | – | 141.6 to 145.6 °C | 1.3 | 30 | – | – | –
11 | CC(=N)Nc1ccc2sc(-c3ccccc3C)nc2c1 [Compound 18, N-[2-(2-methylphenyl)benzothiazol-5-yl]acetamidine] | – | – | – | – | 3 to 8 | 6.2 | 188.4 to 189.8 °C | 1.2 | – | 1.5 to 6 | – | –
12 | CC(=N)Nc1ccc2nc(-c3ccccc3)ncc2c1 [Compound 27, N-(2-phenylquinazolin-6-yl)acetamidine dihydrochloride] | 13.0 | powerful anti-inflammatory and anti-hyperalgesic action | 24.6 | 18.8 | – | 67.5 | – | 9 | – | 1.5 to 6 | – | –
13 | CC(=N)Nc1ccc2oc(-c3ccccc3)cc2c1 [Compound 28, N-(2-phenylbenzofuran-5-yl)acetamidine] | 24.4 | powerful anti-inflammatory and anti-hyperalgesic action | 20.8 | 22.6 | 3 to 8 | 7.8 | 204.8 to 205.9 °C | 0.5 | – | 1.5 to 6 | – | 0.3 to 0.8
14 | CC(=N)Nc1ccc2oc(-c3ccccc3)nc2c1 [Compound 29, N-(2-phenylbenzoxazol-5-yl)acetamidine] | – | – | – | – | – | 28.6 | 171.2 to 173.4 °C | 3.2 | – | 1.5 to 6 | – | –
15 | CC(=N)Nc1ccc2oc(-c3ccc(Cl)cc3)nc2c1 [Compound 30, N-[2-(4-chlorophenyl)benzoxazol-5-yl]acetamidine] | – | – | – | – | – | – | 183.6 to 185.1 °C | 0.3 | 30 | – | – | 0.3 to 0.8
